Measurements published in patent publication US7476729B2, “Dbait and uses thereof” (Institut Curie, priority 2003, dated 2009).

How the values were obtained:
[1] = test system: DNA end-joining reaction in the nuclear extracts of Hep2 cells; assay: DNA end-joining assay in Hep2 nuclear extract; format: biochemical, human; conditions: for ligation of DNA fragments in cell-free assay: 2 h incubation with various Dbait
Procedure: DNA end-joining was monitored by incubating ^32P-labeled 605-bp linear DNA fragments with Hep2 nuclear extract in the presence of various Dbait molecules. Ligation products migrate as dimers, trimers or tetramers, starting 605 bp monomer.
Approximately 16% of the ^32P-labeled blunt linear duplex DNA molecules were ligated into dimers and trimers during the first 2 h of incubation. The amount of high molecular weight ligation products increased up to 30% of the total input DNA after 16 h. […] In most experiments, Dbait32H (SEQ ID NO: 1) was added simultaneously with the labeled DNA fragments to the nuclear extract.
Various Dbait molecules were tested for their effect on the cell-free assay by adding the molecules to nuclear extract and incubating for 2 h with the DNA fragments.
(§1) DNA-PK activity was monitored using the kit SignaTECT DNA-dependent Protein Kinase Assay System (Promega, Madison, USA). Increasing amounts of Hep2 nuclear extract (cleaned of endogenous DNA by DEAE-Sepharose filtration) were assayed in the presence of 250 nM Dbait. Extract, biotinylated peptide substrate and various amount of nuclear extract were incubated 5 minutes at 30° C. with (γ-^32P)ATP according to manufacturer indications. The biotinylated substrate was capture on streptavidine membrane, washed and counted in a scintillation counter. Percentage of phosphorylation is calculated by dividing the bound radioactivity by the total count of (γ-^32P)ATP per sample. Reactions (10 μl) were carried out in 60 mM KOAc, 100 μg/ml BSA, 0.5 mM Mg(Cl)2, 1 μl T4 DNA ligase 10× buffer (Promega, Madison, USA). Nuclear extract and Dbait were incubated 2 minutes before addition of ^32P-labeled DNA (10 ng). Samples were incubated various time at 37° C. before ligation being stopped by 20 mM EDTA and 1 mg/ml Proteinase K addition. Ligation products were analyzed by electrophoresis through 0.7% agarose gels followed by autoradiography and quantification by phosphorimaging.

DNA-PK = biological target: T1, DNA-PK (Homo sapiens, UniProt P12956+P13010+P78527); assay: DNA-dependent protein kinase (DNA-PK) activity assay in Hep2 nuclear extract; format: biochemical; conditions: 2 μg Dbait, 1.5 μg Hep2 nuclear protein extract
T1 construct: Increasing amounts of Hep2 nuclear extract (cleaned of endogenous DNA by DEAE-Sepharose filtration) were assayed; endogenous in cells; host or cells: Hep2 cells (nuclear extract, DNA removed by DEAE-Sepharose filtration)
Procedure: as §1
The kinase activity depended directly on the length and structure of the double-stranded ‘stem’ of the Dbait molecule. […] In addition, various backbone modifications (phosphothioate, methyphosphonate, 3′-3′ linkage) at the free blunt end (up to 3-bp), as well as the internally tagged ligands (e.g. fluorescent dyes), are capable of activating DNA-PK activity.

Hep2 xenografted tumors = assay: Radiosensitization of Hep2 (HNSCC) tumors xenografted on nude mice; format: in vivo; set-up: Mean TGD: unit not given here
Procedure: In vivo activity of Dbait molecules in association with radiotherapy was assessed by using nude mice xenografted with human tumors by subcutaneous injection of radio-resistant cell lines (Hep2 derived from head and neck squmous cell carcinoma, HNSCC) or tumor fragments (previously obtained by subcutaneous injection of the U87 cell lines derived of glioblastoma).
Investigations were mainly carried out on the mice xenografted with radio-resistant human HNSCC tumors in order to establish proof of concept in vivo. Irradiation was performed with γ-rays from a ^137Cs source with appropriate protection of mice in order to perform localized irradiation of tumors. Typical assay condition consists of intratumoral injection of an appropriate preparation of 1 nmole Dbait molecules with transfecting agents (cationic dendrimer (Superefct, Qiagene), dioctadecylamidoglycyl-spermine (DOGS, Polyplus transfection), polyethyleneimine (PEI, Polyplus Transfection) according to manufacturer's instruction, 5 hours prior irradiation. A total dose of 30 Gy was delivered in 5 weeks: i) 3×2 Gy/week (about one every two days); ii) 5 Gy/week; iii) 15 Gy/2 weeks.
The size of tumor was measured 2-3 times a week. Treatment by irradiation and intratumoral injection of MEM medium (the Dbait dilution buffer), was used as a control of irradiation treatment without Dbait. The volume of tumor was calculated ([…], where a=length, b=width). The ratio of volume measured at t time over the initial volume (Vt/Vi) was used as indicator of tumor progression. The mice were followed up to 100 days. At least 4 independent series of six animals were tested.
MEM or Dbait32H (SEQ ID NO: 1) was delivered by intratumoral injection 5 hours prior irradiation. The fractionated irradiation dose (2 Gy) was given one of every two days, three times a week. The treatment lasted 5 weeks totaling 30 Gy irradiation. The dots represent the time course of tumor volume of each mouse. The solid lines are the best polynomial fitting.
Tumor growth was monitored during treatment and after in four groups of 10 animals with different treatments (untreated, treated with Dbait32H (SEQ ID NO: 1) alone, treated by irradiation alone, and the combined Dbait32H (SEQ ID NO: 1) and irradiation). Individual tumor growth is indicated for each animal. The treatment protocol was the same as described in FIG. 4.1. The experiment started when the volume of Hep2 tumors reached 150-200 mm^3. For each treatment session, 20 μg Dbait32H (SEQ ID NO: 1) formulated with polyethyleneimine (PEI, Polyplus Transfection, Strasbourg, France) according to the manufacturer's instruction was injected into tumor 5 hours prior 2 Gy irradiation.
For ethical reason, the animals were sacrificed when their tumors reached 2 cm^3. This end-point was used as death in survival analysis. The treatment protocol was described in FIG. 4.3. The five groups were included: untreated, mock-tranfected and irradiated, treated by combined irradiation and increasing amount of Dbait32H (SEQ ID NO: 1) (20, 60 and 120 μg/session). […] Pictures of tumors representative of the groups (untreated, treated with 20 and 60 μg Dbait32H/session associated with 2 Gy irradiation) which were taken 15 days after beginning of treatment, at the end of treatment (35 days) and 13 days after the end of treatment (35+13 days). They provided clear visual comparison of the benefit of the combined Dbait32H (SEQ ID NO: 1) and irradiation treatment.
Descriptive analyses of the tumor response were performed for each treatment and each tumor type. Day 1 was the day of the first treatment session. All the animals were followed for at least 150 days or until their ethical sacrifice. Median lifetime was estimated according to the Kaplan-Meier method. TGD was calculated by subtracting the mean tumor volume quadrupling time of the control group from tumor volume quadrupling times of individual mice in each treated group. […]

[2] = Hep2, 15 × 2 Gy, 15 × 20 μg (1 nmole)
[3] = Hep2, 15 × 2 Gy, 15 × 60 μg (3 nmole)
[4] = Hep2, 15 × 2 Gy, 15 × 120 μg (6 nmole)
[5] = Hep2, no irradiation, 15 × 20 μg (1 nmole)
[6] = Hep2, 15 × 2 Gy, 15 × 120 μg (12 nmole)
[7] = Hep2, no irradiation, 15 × 120 μg (12 nmole)

## Dbait8H: hairpin double strand DNA with a stem of 8-bp (DNA ACGCACGG; DNA, backbone not given here; hairpin, hexaethyleneglycol loop, 3-bp phosphorothioate at free blunt end)
[1]
  ligation of DNA fragments in cell-free assay: largely unaffected
DNA-PK
  DNA-PK activation (kinase activity): inefficient

## Dbait16H: hairpin double strand DNA with a stem of 16-bp (DNA ACGCACGGGTGTTGGG; DNA, backbone not given here; hairpin DNA with hexaethyleneglycol loop, 3-bp phosphorothioate at free blunt end)
[1]
  ligation of DNA fragments in cell-free assay: inhibited the ligation as efficiently as Dbait32H
DNA-PK
  DNA-PK activation (kinase activity): inefficient

## Dbait32H: hairpin double strand DNA with a stem of 32-bp, hexaethyleneglycol linker, phosphorothioate at the free blunt end (DNA ACGCACGGGTGTTGGGTCGTTTGTTCGGATCT; DNA, backbone not given here; hairpin, hexaethyleneglycol loop, 3-bp phosphorothioate at free blunt end)
[1]; Dbait added 30 min after the nuclear extract (data not shown)
  DNA end-joining (ligation): no inhibition of the ligation
[1]; Dbait added simultaneously with fragments, 100-fold molar excess
  DNA end-joining (ligation of 32P-labeled linear DNA fragments): strongly inhibited
[1]; Dbait incubated with the extract for 30 min before addition of fragments
  DNA end-joining (ligation): extent of inhibition was similar
Hep2 xenografted tumors; 1 nmole (20 μg) intratumoral 5 hours prior irradiation, 3×2 Gy/week, 5 weeks, versus MEM+3×2 Gy
  radiosensitization, tumor growth (Vt/Vi): clearly showed radiosensitization
Hep2 xenografted tumors; 20 μg with PEI intratumoral 5 hours prior 2 Gy, 15 sessions, versus irradiation or Dbait32H alone
  tumor growth: greatly reduced
Hep2 xenografted tumors; 20, 60 and 120 μg/session with 2 Gy irradiation
  survival (Kaplan-Meier), dose dependence: clear dose-dependent effect
Hep2 xenografted tumors; [2]
  Mean % TGD: 561%
  Mean TGD: 49
  Median survival time: 93 days
Hep2 xenografted tumors; Hep2, 15 × 2 Gy, 15 × 20 μg (1 nmole), reference C* (Mock + irradiation)
  Relative risk: 0.42
Hep2 xenografted tumors; [3]
  Mean % TGD: 880%
  Mean TGD: >83
  Median survival time: 129 days
  Number of cured mice: 3
Hep2 xenografted tumors; Hep2, 15 × 2 Gy, 15 × 60 μg (3 nmole), reference C* (Mock + irradiation)
  Relative risk: 0.28
Hep2 xenografted tumors; [4]
  Mean % TGD: 952%
  Mean TGD: >91
  Median survival time: 150 days
  Number of cured mice: 4
Hep2 xenografted tumors; Hep2, 15 × 2 Gy, 15 × 120 μg (6 nmole), reference C* (Mock + irradiation)
  Relative risk: 0.18
Hep2 xenografted tumors; [5]
  Mean % TGD: 168%
  Mean TGD: 7
  Median survival time: 55 days
Hep2 xenografted tumors; Hep2, no irradiation, 15 × 20 μg (1 nmole), reference C (untreated)
  Relative risk: 0.62
Hep2 xenografted tumors; mid-course (7 sessions), 20 μg/session and 2 Gy/session versus irradiation alone
  NMR imaging: necrotic area: necrotic area was more important
Hep2 xenografted tumors; mid-course treatment (7 sessions), 20 days, combined with irradiation versus irradiation alone
  histology: necrosis and apoptosis: enhancement of necrosis and apoptosis was observed
Hep2 xenografted tumors; xenografted tumors on nude mice
  radiosensitization depending on dwell time between intratumoral injection and ionizing radiation: 5 hours>>1 hour

## Dbait32ss: 32-nt single strand DNA (SEQ ID NO: 1) (DNA ACGCACGGGTGTTGGGTCGTTTGTTCGGATCT; DNA, backbone not given here)
[1]
  ligation of DNA fragments in cell-free assay: largely unaffected
Hep2 xenografted tumors; [6]
  Mean % TGD: 374%
  Mean TGD: 29
  Median survival time: 80 days
Hep2 xenografted tumors; Hep2, 15 × 2 Gy, 15 × 120 μg (12 nmole), reference C* (Mock + irradiation)
  Relative risk: 0.57
Hep2 xenografted tumors; [7]
  Mean % TGD: 156%
  Mean TGD: 6
  Median survival time: 46 days
Hep2 xenografted tumors; Hep2, no irradiation, 15 × 120 μg (12 nmole), reference C (untreated)
  Relative risk: 0.71
Hep2 xenografted tumors; high dose (15 × 120 μg)
  in vivo activity (survival of xenografted animals): inactive
